According to article PMC10067855, “Sialidases and fucosidases of Akkermansia muciniphila are crucial for growth on mucin and nutrient sharing with mucus-associated gut bacteria” (Nature Communications, 2023):
pIC50: −log10 of the molar value.

Assays:
Experiment in all cases: inhibition of pNPFuc hydrolysis, A405
Type in all cases: biochemical
AmGH29A = target: T1, AmGH29A (Akkermansia muciniphila, UniProt B2UL68)
T1 construct: gene Amuc_0010; mature peptide lacking the signal peptide
T1 sequence (B2UL68 20-538): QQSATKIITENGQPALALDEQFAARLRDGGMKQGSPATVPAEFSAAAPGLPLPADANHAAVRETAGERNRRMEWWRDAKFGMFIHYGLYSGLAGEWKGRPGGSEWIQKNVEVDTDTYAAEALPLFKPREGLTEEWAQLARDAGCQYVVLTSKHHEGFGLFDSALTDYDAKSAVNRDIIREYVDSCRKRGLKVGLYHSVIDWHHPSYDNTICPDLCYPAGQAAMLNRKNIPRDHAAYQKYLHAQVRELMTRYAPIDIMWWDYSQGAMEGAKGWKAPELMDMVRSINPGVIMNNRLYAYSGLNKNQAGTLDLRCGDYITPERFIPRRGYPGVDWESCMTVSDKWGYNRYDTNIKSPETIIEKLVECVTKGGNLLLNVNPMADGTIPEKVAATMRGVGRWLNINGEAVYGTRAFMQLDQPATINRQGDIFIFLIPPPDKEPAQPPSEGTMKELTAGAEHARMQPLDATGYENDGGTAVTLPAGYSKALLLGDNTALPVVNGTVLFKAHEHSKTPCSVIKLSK

AmGH29C = target: T2, AmGH29C (Akkermansia muciniphila, UniProt B2UNB9)
T2 construct: gene Amuc_0392; mature peptide lacking the signal peptide
T2 sequence (B2UNB9 41-709): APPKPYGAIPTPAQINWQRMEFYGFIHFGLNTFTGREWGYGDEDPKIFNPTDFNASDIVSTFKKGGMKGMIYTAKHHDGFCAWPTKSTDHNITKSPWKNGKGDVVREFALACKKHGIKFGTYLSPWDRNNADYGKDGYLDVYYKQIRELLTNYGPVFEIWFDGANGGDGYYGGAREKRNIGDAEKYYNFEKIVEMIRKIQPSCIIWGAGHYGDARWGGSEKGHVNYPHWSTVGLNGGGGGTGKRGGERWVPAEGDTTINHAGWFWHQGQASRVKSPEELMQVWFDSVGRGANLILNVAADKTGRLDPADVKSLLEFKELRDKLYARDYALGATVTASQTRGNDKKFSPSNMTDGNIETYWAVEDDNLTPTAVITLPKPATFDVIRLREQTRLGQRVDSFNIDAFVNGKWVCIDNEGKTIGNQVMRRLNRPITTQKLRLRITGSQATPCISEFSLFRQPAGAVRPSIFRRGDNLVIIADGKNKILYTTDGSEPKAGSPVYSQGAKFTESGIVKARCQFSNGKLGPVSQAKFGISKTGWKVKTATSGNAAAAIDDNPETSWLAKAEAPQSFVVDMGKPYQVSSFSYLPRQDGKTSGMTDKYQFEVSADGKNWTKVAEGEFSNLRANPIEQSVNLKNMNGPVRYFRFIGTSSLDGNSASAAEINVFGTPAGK

AmGH95B = target: T3, AmGH95B (Akkermansia muciniphila, UniProt B2UR61)
T3 construct: gene Amuc_1120; mature peptide lacking the signal peptide
T3 sequence (B2UR61 23-796): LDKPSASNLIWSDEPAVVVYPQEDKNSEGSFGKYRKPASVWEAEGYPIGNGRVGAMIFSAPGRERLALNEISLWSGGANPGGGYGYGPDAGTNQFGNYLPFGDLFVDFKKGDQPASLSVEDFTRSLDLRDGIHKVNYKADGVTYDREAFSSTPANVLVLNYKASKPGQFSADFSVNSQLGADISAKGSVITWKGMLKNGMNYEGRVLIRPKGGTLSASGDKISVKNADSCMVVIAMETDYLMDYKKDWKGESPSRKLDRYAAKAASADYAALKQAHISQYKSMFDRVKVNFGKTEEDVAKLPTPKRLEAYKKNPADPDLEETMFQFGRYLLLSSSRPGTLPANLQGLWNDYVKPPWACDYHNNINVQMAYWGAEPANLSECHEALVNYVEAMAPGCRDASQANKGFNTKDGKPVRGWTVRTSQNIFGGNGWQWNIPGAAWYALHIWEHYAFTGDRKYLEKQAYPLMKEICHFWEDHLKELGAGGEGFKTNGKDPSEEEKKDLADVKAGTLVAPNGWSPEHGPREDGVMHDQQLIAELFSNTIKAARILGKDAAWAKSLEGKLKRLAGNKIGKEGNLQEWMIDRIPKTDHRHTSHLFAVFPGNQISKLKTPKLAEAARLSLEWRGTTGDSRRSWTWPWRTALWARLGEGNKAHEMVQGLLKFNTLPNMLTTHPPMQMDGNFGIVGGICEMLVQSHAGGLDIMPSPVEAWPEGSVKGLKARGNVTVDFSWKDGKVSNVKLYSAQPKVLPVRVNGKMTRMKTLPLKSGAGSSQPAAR

AmGH29D = target: T4, AmGH29D (Akkermansia muciniphila, UniProt B2UQE4)
T4 construct: gene Amuc_0846; mature peptide lacking the signal peptide
T4 sequence (B2UQE4 25-704): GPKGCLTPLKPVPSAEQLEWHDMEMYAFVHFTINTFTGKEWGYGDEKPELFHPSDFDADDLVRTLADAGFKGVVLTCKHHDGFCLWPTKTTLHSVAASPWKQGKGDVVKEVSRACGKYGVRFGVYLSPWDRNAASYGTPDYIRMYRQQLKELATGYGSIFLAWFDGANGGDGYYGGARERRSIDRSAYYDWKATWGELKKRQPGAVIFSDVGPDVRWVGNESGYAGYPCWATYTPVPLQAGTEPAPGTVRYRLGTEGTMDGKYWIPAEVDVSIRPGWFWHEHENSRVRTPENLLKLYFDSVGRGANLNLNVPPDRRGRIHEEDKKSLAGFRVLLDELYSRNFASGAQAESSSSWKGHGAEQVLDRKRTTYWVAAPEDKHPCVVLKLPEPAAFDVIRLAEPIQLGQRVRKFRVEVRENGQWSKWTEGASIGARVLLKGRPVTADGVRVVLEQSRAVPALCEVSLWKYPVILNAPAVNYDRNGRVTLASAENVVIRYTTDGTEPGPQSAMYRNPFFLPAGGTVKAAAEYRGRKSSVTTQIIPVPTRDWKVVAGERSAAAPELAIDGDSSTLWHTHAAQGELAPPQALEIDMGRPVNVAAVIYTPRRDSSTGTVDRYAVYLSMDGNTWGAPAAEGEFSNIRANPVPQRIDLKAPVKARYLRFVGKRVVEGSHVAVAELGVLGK

Measured: pIC50

C[C@@H]1NC[C@@H](O)[C@H](O)[C@@H]1O [DFJ, 1-Deoxyfuconojirimycin]
> 4.27: all assays above
